Measurements taken from ChEMBL document CHEMBL1151384, “The Alkaloids of Thalictrum foliolosum” (J Nat Prod, 1982).
Active and inactive are the calls of the source.

How the values were obtained:
Type in all cases: functional, organism-based
[1] = system: Trichophyton mentagrophytes; test: Antifungal activity against Trichophyton mentagrophytes
Staphylococcus aureus = test: Antibacterial activity against Staphylococcus aureus
Klebsiella pneumoniae = test: Antibacterial activity against Klebsiella pneumoniae
Escherichia coli = test: Antibacterial activity against Escherichia coli
Aspergillus fumigatus = test: Antifungal activity against Aspergillus fumigatus
Sporothrix schenckii = test: Antifungal activity against Sporotrichum schenckii
Pseudomonas aeruginosa = test: Antibacterial activity against Pseudomonas aeruginosa
Candida albicans = test: Antifungal activity against Candida albicans
Cryptococcus neoformans = test: Antifungal activity against Cryptococcus neoformans
Enterococcus faecalis = test: Antibacterial activity against Streptococcus faecalis

Measured: Activity

COc1ccc2cc1Oc1ccc(cc1)C[C@H]1c3cc(OC)c(OC)c(c3CCN1C)Oc1c(OC)c(OC)cc3c1[C@H](C2)N(C)CC3
inactive: all assays above

COc1ccc2cc1Oc1ccc(cc1)C[C@H]1c3cc(OC)c(OC)c(c3CCN1C)Oc1c(O)c(OC)cc3c1[C@H](C2)N(C)CC3
inactive: all assays above

COc1ccc2c(c1)-c1c(OC)c(OC)cc3c1[C@H](C2)N(C)CC3
inactive: all assays above

COc1cc(C[C@H]2c3cc(OC)c(OC)cc3CCN2C)c(Oc2cc3c(cc2OC)-c2c(OC)c(OC)cc4c2[C@H](C3)N(C)CC4)cc1OC
inactive: all assays above
